Test results taken from publication PMC6268140, “Absorption and Interaction of the Main Constituents from the Traditional Chinese Drug Pair Shaoyao-Gancao via a Caco-2 Cell Monolayer Model” (Molecules, 2012).

Columns and labels:
[1] = Transport across Caco-2 cell monolayers (A-B and B-A directions); details: human; for Papp A→B at 4 h: Caco-2, pH 7.4; for efflux ratio at 4 h: Caco-2, pH 7.4, Efflux ratio PBA/PAB; for Papp at 4 h: mean ± SD, n = 3
Protocol: (§1) Cells were cultured in a humidified atmosphere of 5% CO2 and 95% air at 37 °C. The Dulbecco’s modified Eagle’s medium was supplemented with 10% (v/v) fetal bovine serum, 1% nonessential amino acids, 100 U/mL penicillin, and 100 µg/mL streptomycin. When the cell culture reached 80% confluence, it was rinsed with phosphate-buffered saline and split using trypsin. For transport experiments, the cells were seeded on 3 μm porous polycarbonate cell culture inserts from Nunc, which has a surface area of 4.2 cm^2 at a density of 2,500,000 cells/cm^2. The culture media was replaced every other day. The monolayers were ready for experiments from 19 to 22 days after seeding. Well-developed Caco-2 cell monolayers with transepithelial electrical resistance (TEER) values greater than 400 Ω × cm^2 were used for the experiment.
(§2) Paeoniflorin, glycyrrhizic acid, and liquiritin were dissolved in dimethyl sulfoxide (DMSO)-ethanol (v/v = 1/1) to prepare the stock solution (10 mM) for each single compound. The above-mentioned solutions were further diluted with Hank’s balanced salt solution (HBSS, pH = 7.4) to obtain a series of working standard solutions, and the final concentrations of paeoniflorin, glycyrrhizic acid, or liquiritin in the transport samples were 50 µM, 20 µM, or 50 µM, respectively. Moreover, the final concentrations of the organic solvent of different samples were controlled below 0.5% to ensure the safety to the cells.
(§3) Dry Shaoyao (100 g) or Gancao (100 g) herb materials were extracted twice with boiling water for 1 h each time, and the solutions were filtered through gauze. Then, the filtrates were merged and concentrated to 100 mL as the Shaoyao extract (1 g/mL) containing paeoniflorin (22.41 mg/mL) or Gancao extract (1 g/mL) containing glycyrrhizic acid (16.35 mg/mL) and liquiritin (22.38 mg/mL). Subsequently, the single extract or mixed extract was dissolved in HBSS (pH = 7.4) to obtain a series of working standard solutions, and the final concentrations of paeoniflorin, glycyrrhizic acid, or liquiritin in the transport samples were 50 µM, 22 µM, or 54 µM, respectively. In addition, the ratio of Shaoyao and Gancao in the mixed extract was 1:1. Meanwhile, testosterone (internal standard) was dissolved in acetonitrile with acetic acid (v/v = 94/6) to 100 µM. In addition, verapamil was dissolved in water to 5 mM when it was used.
(§4) The cell monolayers were washed three times with 37 °C HBSS (pH 7.4). The monolayers were incubated with the buffer for 1 h, and the incubation medium was then aspirated. Afterwards, a single component or extract solution was loaded on the apical or basolateral side. When the transport inhibitor (verapamil) was used, it was loaded only at the donor side. The amounts of transported drugs in the receiver media were determined by ultra-performance liquid chromatography (UPLC). In the test for each solution, four donor samples (400 μL) and four receiver samples (400 μL) were taken at time intervals of 1, 2, 3, and 4 h, followed by an immediate replacement with fresh donor solution (400 μL) to the donor side or fresh buffer (400 μL) to the receiver side.
(§5) To each transport sample (400 μL), 100 μL of acetonitrile containing 100 μM of testosterone was added as an internal standard and a preservative. The resulting mixture was vortexed for 30 s and then centrifuged at 15,000 rpm for 15 min, and the supernatant obtained was analyzed by UPLC.
(§6) UPLC was used to determine the concentration of the compounds in the transport samples.

Caco-2 cell monolayers = assay: as above; details: mixture of Shaoyao-Gancao extract vs. Gancao extract; 22 μM
Protocol: as §1, §2, §3, §4, §5, §6

P-glycoprotein (P-gp) = P-glycoprotein (P-gp) (Homo sapiens, UniProt P08183); details: Caco-2, 4 h, 50 µM, pH 7.4
Excerpt: To determine whether P-gp is involved in the transport of these compounds, their transports were studied in the presence of verapamil, a known inhibitor for P-gp.
All data were presented as means ± SD. […] Results were considered significant at p < 0.05.

[2] = single component solution, paeoniflorin 50 μM, glycyrrhizic acid 20 μM, liquiritin 50 μM
[3] = Caco-2, pH 7.4, Papp PAB, in the mixture of Shaoyao-Gancao extract (1:1), paeoniflorin 50 μM, glycyrrhizic acid 22 μM, liquiritin 54 μM
[4] = Caco-2, pH 7.4, Papp PAB, paeoniflorin in Shaoyao extract (50 μM), glycyrrhizic acid (22 μM) and liquiritin (54 μM) in Gancao extract
[5] = Caco-2, pH 7.4, Papp PBA (secretary permeability), single component solution, paeoniflorin 50 μM, glycyrrhizic acid 20 μM, liquiritin 50 μM, HBSS pH 7.4
[6] = Caco-2, pH 7.4, Papp PBA, in the mixture of Shaoyao-Gancao extract (1:1), paeoniflorin 50 μM, glycyrrhizic acid 22 μM, liquiritin 54 μM
[7] = Caco-2, pH 7.4, Papp PBA, paeoniflorin in Shaoyao extract (50 μM), glycyrrhizic acid (22 μM) and liquiritin (54 μM) in Gancao extract

Chain of P-glycoprotein (P-gp) (P08183 whole entry): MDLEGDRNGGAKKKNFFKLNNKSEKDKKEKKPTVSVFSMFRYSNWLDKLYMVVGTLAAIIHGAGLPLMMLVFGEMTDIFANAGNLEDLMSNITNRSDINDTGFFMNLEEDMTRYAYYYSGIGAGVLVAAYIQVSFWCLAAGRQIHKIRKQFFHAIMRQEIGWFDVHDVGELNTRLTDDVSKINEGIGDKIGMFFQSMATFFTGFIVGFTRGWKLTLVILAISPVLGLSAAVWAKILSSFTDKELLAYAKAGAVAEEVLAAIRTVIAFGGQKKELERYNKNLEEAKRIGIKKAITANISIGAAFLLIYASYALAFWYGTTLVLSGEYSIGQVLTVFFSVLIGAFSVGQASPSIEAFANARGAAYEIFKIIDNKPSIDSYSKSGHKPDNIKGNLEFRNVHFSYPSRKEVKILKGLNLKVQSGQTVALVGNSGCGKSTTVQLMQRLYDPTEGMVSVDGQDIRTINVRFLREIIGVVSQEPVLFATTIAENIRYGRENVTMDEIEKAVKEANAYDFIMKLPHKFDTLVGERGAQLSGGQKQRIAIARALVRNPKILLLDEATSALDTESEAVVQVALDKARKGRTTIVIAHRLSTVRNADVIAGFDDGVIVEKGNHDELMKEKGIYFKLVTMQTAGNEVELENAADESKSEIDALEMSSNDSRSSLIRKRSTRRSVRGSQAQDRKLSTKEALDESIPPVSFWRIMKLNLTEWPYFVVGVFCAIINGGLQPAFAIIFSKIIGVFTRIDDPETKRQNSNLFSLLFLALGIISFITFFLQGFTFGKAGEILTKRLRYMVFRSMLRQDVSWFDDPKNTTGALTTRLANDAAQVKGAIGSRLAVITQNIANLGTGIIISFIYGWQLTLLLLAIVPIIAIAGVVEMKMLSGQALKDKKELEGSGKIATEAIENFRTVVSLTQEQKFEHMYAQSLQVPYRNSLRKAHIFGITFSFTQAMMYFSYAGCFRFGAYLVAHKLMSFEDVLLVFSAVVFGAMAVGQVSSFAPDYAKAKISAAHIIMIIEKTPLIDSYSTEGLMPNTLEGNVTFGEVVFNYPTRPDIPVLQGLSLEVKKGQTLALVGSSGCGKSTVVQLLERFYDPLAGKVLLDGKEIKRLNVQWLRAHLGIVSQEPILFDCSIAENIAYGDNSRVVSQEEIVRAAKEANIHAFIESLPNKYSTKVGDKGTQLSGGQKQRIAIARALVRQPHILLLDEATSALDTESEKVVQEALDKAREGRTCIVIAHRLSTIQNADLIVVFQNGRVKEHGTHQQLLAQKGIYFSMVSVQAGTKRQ

| Papp A→B at 4 h [1] [×10⁻⁶ cm/s] | efflux ratio at 4 h, 22 µM ([1]; Caco-2, pH 7.4, Decrease of efflux ratio in the mixture compared to the Gancao extract, mixture of Shaoyao-Gancao extract vs. Gancao extract, 22 μM) | efflux ratio at 4 h [1, 2] | Papp at 4 h [1, 3] [×10⁻⁶ cm/s] | Papp at 4 h [1, 4] [×10⁻⁶ cm/s] | Papp at 4 h [1, 5] [×10⁻⁶ cm/s] | Papp at 4 h [1, 6] [×10⁻⁶ cm/s] | Papp at 4 h [1, 7] [×10⁻⁶ cm/s] | Increase of PAB in the mixture compared to PAB in the Gancao extract (Caco-2 cell monolayers) | Decrease in the efflux ratio after addition of verapamil (P-glycoprotein (P-gp)) [%] | Structure (SMILES) |
| --- | --- | --- | --- | --- | --- | --- | --- | --- | --- | --- |
| 0.36 ± 0.04 | > 1 | 2.31 | 1.17 ± 0.08 | 0.41 ± 0.05 | 0.83 ± 0.07 | 1.21 ± 0.06 | 0.89 ± 0.04 | over two times |  | CC1(C)[C@@H](O[C@H]2O[C@H](C(=O)O)[C@@H](O)[C@H](O)[C@H]2O[C@@H]2O[C@H](C(=O)O)[C@@H](O)[C@H](O)[C@H]2O)CC[C@]2(C)[C@H]3C(=O)C=C4[C@@H]5C[C@@](C)(C(=O)O)CC[C@]5(C)CC[C@@]4(C)[C@]3(C)CC[C@@H]12 [Glycyrrhizic acid] |
| 0.61 ± 0.09 |  | 2.1 | 1.96 ± 0.08 | 0.94 ± 0.11 | 1.28 ± 0.05 | 1.77 ± 0.07 | 1.3 ± 0.02 |  | 54.29 | C[C@@]12C[C@@]3(O)O[C@@H](O1)[C@]1(COC(=O)c4ccccc4)[C@H]3C[C@@]12O[C@@H]1O[C@H](CO)[C@@H](O)[C@H](O)[C@H]1O [Paeoniflorin] |
| 0.73 ± 0.04 |  | 2.15 | 1.31 ± 0.06 | 1.2 ± 0.06 | 1.57 ± 0.05 | 1.58 ± 0.04 | 1.59 ± 0.02 |  | 60.47 | O=C1C[C@@H](c2ccc(O[C@@H]3O[C@H](CO)[C@@H](O)[C@H](O)[C@H]3O)cc2)Oc2cc(O)ccc21 [Liquiritin] |
